Reference: ChEMBL document CHEMBL1127207, “Synthesis of ingenol analogs wth affinity for protein kinase C” (Bioorg Med Chem Lett, 1993)

Tests used:
[1] = target: T1, Protein kinase C alpha type (Homo sapiens, UniProt P17252); assay: Displacement of [3H]PDBU from protein kinase C-alpha
[2] = target: T1, Protein kinase C alpha type; assay: Displacement of [3H]-PDBU from protein kinase C-alpha
Mus musculus = assay: Tested in vivo for inflammatory potency in the mouse ear; assay type: functional
[3] = target: T1, Protein kinase C alpha type; assay: Displacement of [3H]PDBU from protein kinase C-alpha (Inactive)

SMILES	Ki [1] [nM]	Ki [2] [nM]	Potency (Mus musculus) [nM]	also measured
O=C(O[C@H]1CCC23CCCC[C@H](C=C(CO)C[C@H]12)C3=O)c1ccccc1	165	–	–	–
CC1=CC23C(=O)[C@@H](C=C(CO)[C@@H](O)[C@]2(O)[C@H]1O)[C@H]1[C@@H](C[C@H]3C)C1(C)C	–	240	–	–
CCCCC(=O)O[C@@H]1[C@@H](C)[C@@]2(O)[C@@H](C=C(CO)C[C@]3(O)C(=O)C(C)=C[C@@H]23)[C@@H]2C(C)(C)[C@]12OC(=O)CCCC	–	0.54	0.067	–
CC1=CC23C(=O)[C@@H](C=C(CO)[C@@H](O)[C@]2(O)[C@H]1OC(=O)c1ccccc1)[C@H]1[C@@H](C[C@H]3C)C1(C)C	0.14	–	–	–
CC1=C[C@@]23CCCC[C@@H](C=C(CO)[C@@H](O)[C@]2(O)[C@H]1O)C3=O	–	–	–	Ki [3]: Not Active
CC1=CC23C(=O)[C@@H](C=C(COC(=O)c4ccccc4)[C@@H](O)[C@]2(O)[C@H]1OC(=O)c1ccccc1)[C@H]1[C@@H](C[C@H]3C)C1(C)C	–	–	0.054	–
